# Test results from a melting point compilation (Tetko et al.; mined from patent text by program, amines drawn as free bases though some values may be those of a salt).
row,melting point,Compound
1,150 to 151 °C,CCCSC1(C(F)(F)F)CN(C2CC2)C(=O)Nc2ccc(Cl)cc21 (stereo not given)
2,136 to 137 °C,COC(=O)C(=O)c1ccc(OCCOc2ccc(S(N)(=O)=O)cc2)cc1
3,74 to 75 °C,CCOC(=O)c1cnc(NN)nc1-c1ccccc1
4,139 to 141 °C,O=[N+]([O-])C=C1NCC(c2ccccc2)O1 (stereo not given)
5,> 280 °C,c1cc(-c2nc3cc4[nH]cnc4cc3[nH]2)ccn1
6,116 to 118 °C,COc1ccc2c(c1OC)SCCC2C#N (stereo not given)
7,> 270 °C,NC(Cc1ccc(O)cc1)CN1CCN(c2ccccc2)CC1 (stereo not given)
8,214 to 215 °C,CC(=O)c1c(C)[nH]c(-c2ccccc2)c1N=Cc1ccc(Cl)cc1
9,150 to 151 °C,O=C(O)CCc1cnoc1-c1ccc2c(c1)OCO2
10,129 to 131 °C,CCCC(CCC)n1nnc2c(Oc3c(Br)cc(C(C)C)cc3OC)nc(C)nc21
11,183 to 185 °C,CCOC(=O)c1ccc2nc3c(c(=O)n2c1)CSC3
12,86 to 88 °C,COc1ccc2c(Cl)ccnc2c1
13,220 °C,CCCCC1=C([N+](=O)[O-])C(c2cccc(Cl)c2Cl)c2c[nH]nc2N1 (stereo not given)
14,107 to 108 °C,O=C1CCCC(c2ccc(Cl)cc2)N1c1cccnc1 (stereo not given)
15,91 to 94 °C,CC(=O)NCc1cccc(CCCOCCCCCCNCC(O)c2cc(Cl)c(N)c(Cl)c2)c1 (stereo not given)
16,147 to 149 °C,COC(=O)c1ccccc1C(=O)c1ccc(O)cc1
17,206 to 208 °C,CC#CCOc1cc(/C=C/C(=O)O)ccc1OC(F)F
18,168 to 169 °C,Cc1c(Cc2cccc(C(F)(F)F)c2)sc2c(-c3cc(F)cc(C(=O)O)c3)cccc12
19,61 to 63 °C,O=C1OC(c2ccccc2)(c2ccccc2)CC(O)=C1CCCc1ccccc1

row,melting point,Compound
1,114 to 116 °C,CCOC(=O)c1cc2ccc3oc4ccccc4c3c2n1C
2,143 to 147 °C,Cc1noc(C)c1-c1cc(OC2SCC(O)C(O)C2O)ccn1 (stereo not given)
3,195 to 197 °C,O=S(=O)(Cl)c1ccc2c(S(=O)(=O)Cl)cc(S(=O)(=O)Cl)cc2c1
4,119 to 123 °C,O=[N+]([O-])c1ccc(C(O)c2ccccn2)c(OCC(F)(F)F)c1 (stereo not given)
5,194 to 196 °C,COc1ccc2c(c1)CCC1CC(=O)N(c3ccccn3)N=C21 (stereo not given)
6,191 to 193 °C,CSC1(Cl)C(=O)Nc2ccc(C(F)(F)F)cc21 (stereo not given)
7,122 to 124 °C,COc1ccc2ccc(O)c(N=O)c2c1
8,95 to 96 °C,CCCCC(CC)c1nc2cc(Cl)c(C#N)c(C)n2n1 (stereo not given)
9,108 to 110 °C,c1ccc(CNc2ccncc2)cc1
10,147 to 150 °C,CCCc1c(OCCCCCCc2cccc(O)c2O)ccc(C(=O)O)c1O
11,188 to 193 °C,Cc1cccc(COc2cccc(OCc3ccc4ccc(Cl)cc4n3)c2)c1C(=O)O
12,258 to 260 °C,Cc1cc(Cc2cnc(N)nc2N)cc(C)c1N
13,55 °C,CCOc1ccc(CCNC(=O)/C=C/c2cccs2)cc1S(N)(=O)=O
14,> 350 °C,Cc1c(CC(=O)O)c(=O)oc2cc(O)c(O)c([N+](=O)[O-])c12
15,155 to 156 °C,S=c1nc(-c2cccnc2Cl)[nH]n1Cc1ccccc1
16,180 to 182 °C,Cc1nc(C)n(CCOCC2=C(C(=O)OC(C)C)C(c3ccccc3Cl)C(C(=O)Nc3ccccn3)=CN2)c1C (stereo not given)
17,105 °C,CCCCCC(O)CCCN(Cc1cccc(C=CC(=O)O)c1)S(C)(=O)=O (stereo not given)
18,214 °C,CC1CC(=O)NN=C1c1ccc(N2CCC(C(=O)O)CC2)c([N+](=O)[O-])c1 (stereo not given)

# More lines, now with the values behind:
row,Compound,melting point
1,CNc1cc(OC)ccc1[N+](=O)[O-],107 to 110 °C
2,CC(=NNC(=N)N)c1sc(-c2ccc(C3CCCCC3)cc2)nc1C,273 to 276 °C
3,CCC(=O)c1cc(C2(c3cccc(NC(=O)COC)c3)N=C(N)N(C)C2=O)cn1CC (stereo not given),95 to 115 °C
4,N#CCCNC(=O)c1cccc(-c2ccc3c(n2)N(Cc2ccc(Cl)cc2Cl)CC3)c1,156 to 157 °C
5,COCn1nc(N)c2cc(S(=O)(=O)C(C)C)cc(OCCc3ccccn3)c21,140 to 142 °C
6,CCn1cc(C(=O)Nc2cc(Oc3ccc4nc(NC(=O)C5CC5)cn4n3)ccc2F)c(C)n1,199 °C
7,O=C(O)CCCCCCCCCCOc1cc(OCCCCCCCCCCC(=O)O)cc(C(=O)N(CC(=O)O)CC(=O)O)c1,134 to 140 °C
8,COC(=O)C=Cc1ccc(O)cc1,139 to 140 °C
9,Clc1nc2ccc(Br)cc2cc1Cc1ccccc1,102 to 104 °C
10,Cc1cc(CN(Cc2cc(C(F)(F)F)cc(C(F)(F)F)c2)c2nnn(C)n2)c(N(CC2CC2)CC2CC2)nc1C,103 °C
11,COc1ccc(-c2nc3n(c2-c2cccnc2)CCC3)cc1,164 to 165 °C
12,NC(=O)Cc1cc(Oc2ccc3c(ccn3C(=O)Nc3ccc(CN4CCNCC4)c(C(F)(F)F)c3)c2)ncn1,173 to 180 °C
13,CCC(CC)c1nn(-c2ccc(C(F)(F)F)nn2)cc1CCCOc1c(CC(=O)O)cccc1OC,81 to 82 °C
14,CC(=O)NC1CCN(c2ccc(C#N)c3ccccc23)C1 (stereo not given),154 to 155 °C
15,O=[N+]([O-])c1cc(I)ccc1Nc1cccc(-n2cccn2)c1,165 to 166 °C
16,O=c1ccoc2ccc(F)cc12,165 to 168 °C
17,O=C1C2=C(CCCC2)C(=O)N1c1cc(O)ccc1F,165 °C
18,O=C1c2cc(OCc3ccccc3)ccc2OCCC1Oc1ccccc1 (stereo not given),112 to 114 °C
19,CC(=O)OCc1nccc2[nH]c(=O)ccc12,162 to 165 °C
20,COC(=O)c1ccc2c(c1)C(=O)C(C)C(c1ccccc1)=N2 (stereo not given),> 300 °C
21,CN(Cc1cccc(-c2ccc(CC3SC(=O)NC3=O)cc2)c1)C(=O)c1ccno1 (stereo not given),160 °C

row,Compound,melting point
1,CCOC(=O)c1c(C)nn(C)c1CSC(=N)N,175 to 180 °C
2,CC(C)Oc1ccc(-n2c(C(=O)NCCNC(=O)OC(C)(C)C)cc3cc(Oc4ccc(C(F)(F)F)cn4)ccc32)cc1,188 to 190 °C
3,CCN1C=C(N)N=C(C2CC2)c2ccccc21,93 to 95 °C
4,Cn1nc(-c2ccc([N+](=O)[O-])cc2)c2ccccc2c1=O,200 to 202 °C
5,COc1cc2c(CCN3CCN(c4cccc(Cl)c4C)CC3)nn(Cc3c[nH]cn3)c2cc1OC,143 to 144 °C
6,COc1cc(C(=O)N2CCN(C(=O)C3=Cc4cc(OCc5ccccc5)c(OCc5ccccc5)cc4CCC3)CC2)cc(OC)c1OC,130 to 132 °C
7,O=C1c2cccc([N+](=O)[O-])c2OC12CC2,131 to 134 °C
8,CC(=O)n1[nH]c(=O)n(-c2ccccc2)c1=O,215 to 218 °C
9,O=C(O)CCC(Cc1ccccc1Cl)(C(=O)C=Cc1cccc(Cl)c1)c1ccccc1 (stereo not given),170 to 172 °C
10,CCCc1c(COc2ccc(C(=O)Cc3nnn[nH]3)cc2)ccc(C(C)=O)c1O,207 to 209 °C
11,COc1cc(CCNc2ncnc3scnc23)ccc1Oc1c(F)cnc(C(F)(F)F)c1F,108 to 112 °C
12,COc1ccc(-c2cncc(C#N)c2N(C)c2ccc3[nH]ccc3c2)cc1OC,224 to 226 °C
13,N#Cc1c(N2CCN(C(=O)c3cccs3)CC2)c2cscc2n(-c2cccnc2)c1=O,282 °C
14,COc1ccc2[nH]c(SC/C=C(\C)CCC=C(C)C)nc2c1,113 to 116 °C
15,O=C1c2ccccc2-c2c1nc(Cl)c1ccccc21,242 to 244 °C
16,CCOC(=O)c1c(O)c2ccsc2n(Cc2ccccc2)c1=O,146 °C
17,COC1CC(C)(OCc2ccccc2)C2COC1O2 (stereo not given),45 to 46 °C
18,CCCCCCCCCCCNC(=O)N(C)CC(O)C(O)C(O)C(O)CO (stereo not given),109 °C
19,Nc1nc(C2CCN(C(=O)c3ccccc3)CC2)c2cc(Cl)ccc2n1,155 to 158 °C
20,c1ccc2cc(Cc3ccncc3)ccc2c1,66 to 67 °C
21,CCOC(=O)c1[nH]c2cc(Cl)cc(Cl)c2c1N(CC(=O)c1ccccc1)Cc1ccccc1,174 to 175 °C

row,Compound,melting point
1,Cc1c(C(=O)O)cnn1-c1nc(-c2ccc3ccccc3c2)cs1,273 to 274 °C
2,CC(C)SC(C)(C)C(=O)O,51.5 to 52.5 °C
3,COc1c(OCc2ccccc2)cnc(CNc2nc(C)nc(C)c2Cl)c1C,114 to 116 °C
4,O=C(Nc1ccc(C(F)(F)F)cc1)c1ccc(C=NO)cc1,221 to 222 °C
5,C1=C(CCc2ccccc2)CCN(Cc2n[nH]c3c2CCc2ccccc2-3)C1,173 to 174 °C
6,O=C(NO)c1ccc2c(c1)CN(C(=O)c1ccc3[nH]ccc3c1)CC2,252 °C
7,CC1=NN(C(=O)NS(=O)(=O)c2ncccc2C(F)(F)F)C(c2ccccc2)C1 (stereo not given),185 to 187 °C
8,COc1nc(OC)nc(N(C(=O)Oc2ccccc2)C(=O)Oc2ccccc2)n1,125 °C
9,COc1ccc(-c2[nH]c3cn[nH]c(=O)c3c2Cl)cc1OC(C)C,291 to 299 °C
10,CN1Cc2c(-c3noc(CN4CCCC(C)(C)C4)n3)ncn2-c2ccccc2C1=O,167 to 168 °C
11,CCOC(=O)C1CCc2c(oc3cc(NC(C)=O)ccc23)C1 (stereo not given),115 to 116 °C
12,CCNC(=O)[C@H](C)NC(=O)[C@H](C)NC(=O)CC,289 to 291 °C
13,CC(C)(C)OC(=O)NCCNC(=O)c1ncsc1-c1cccc(OCc2cccc(C#N)c2)c1,115 °C
14,CC(C)(C)NC(=O)N1CCn2c(Cl)c(-c3ccccc3)c(C(N)=O)c2C1,192 to 195 °C
15,Fc1cc(OC23CC4CC(CC(C4)C2)C3)ccc1N1CCCC1,99 to 106 °C
16,Fc1ccc(-c2cc(C(S)(C(F)(F)F)C(F)(F)F)[nH]c2-c2ccc(F)cc2)cc1,114 to 115 °C
17,Cc1csc2[nH]c(=O)n(CCC(C(=O)NO)N(C)S(=O)(=O)c3ccc(Oc4ccccc4)cc3)c(=O)c12 (stereo not given),142 to 144 °C
18,Cc1nc(N)c2nc(C)n(CCOCCNC(=O)N3CCOCC3)c2c1C,205 to 207 °C
19,COc1cn(-c2ccc(-c3ncco3)cc2F)nc(-c2ccnn2-c2ccccc2)c1=O,223 to 225 °C
20,CCN(CC)c1ccc(/C=C/c2cc(/C=C/c3ccc4cc[nH]c4c3)[nH]n2)c(OCCN2CCCCC2)c1,102 to 104 °C
21,Cc1ccc(OCC2CN=C(N)O2)c(C)c1 (stereo not given),116 °C
